The IC50 is the concentration at which inhibition is half-maximal. A low value points to inhibition by little substance. A word on the GI50: it is the concentration giving 50% growth inhibition. For orientation: inhibition means the percentage by which the read-out fell short of the control.

Like-named read-outs stand apart in the source and are kept apart here.

Results on one molecule are retold here after paper PMC3049581, “Development and evaluation of human AP endonuclease inhibitors in melanoma and glioma cell lines” (British Journal of Cancer, 2011).

One series concerns the target T1, Human APE1 (Homo sapiens, UniProt P27695).
T1 construct: purchased New England Biolabs
As to the kind of experiment: Fluorescence-based AP site cleavage assay. The series is classed as biochemical. As to conditions: APE1 50 nM, wild type. The procedure: (§1) A fluorescence-based AP site cleavage assay was performed as described previously with slight modifications ([Madhusudan et al, 2005]). Briefly, APE1 (50 nM) (New England Biolabs) was incubated in a buffer system consisting of 50 mM Tris-HCl, pH 8.0, 1 mM MgCl2, 50 mM NaCl, 2 mM DTT at 37°C for 10 min. 5′-F-GCCCCCXGGGGACGTACGATATCCCGCTCC-3′ and its complementary Q-labelled oligonucleotide (see above) were annealed in a buffer containing 100 μM Tris-HCl, 50 mM NaCl and 1 μM EDTA. AP-site cleavage was initiated by addition of the annealed substrate (25 nM) to the reaction mix. Fluorescence readings were taken at 5 min intervals during 30 min incubation at 37°C using an Envision Multilabel reader from Perkins Elmer (Cambridge, UK) with a 495 nm excitation and a 512 nm emission filter. If the DNA is cleaved at the abasic site at position 7 from the 5′-end by APE1, the 6-mer fluorescein-containing product will dissociate from its complement by thermal melting. As a result, the quenching effect of the 3′ dabcyl (which absorbs fluorescein fluorescence when in close proximity) is lost, and APE1 activity is measured indirectly as an increase in fluorescence signal (Figure 2A). Similar assays were developed for monitoring the AP endonuclease activity of endonuclease IV using a buffering system containing 10 mM HEPES-KOH, pH 7.4, 100 mM KCl and 60 ng of endonuclease IV (Trevigen, Abingdon, UK). The final DMSO concentration was maintained at 1.2% in all assays.
(§2) APE1 was incubated with the candidate inhibitors at 100 μM (final DMSO concentration, 1.2%) before initiating the AP site cleavage assay described in the previous section. […] In addition, screening of potential inhibitors for their specificity (at 100 μM concentration) was performed using endonuclease IV cleavage assays.
To estimate IC50 for APE1 inhibition, the ability of the compounds to inhibit APE1 at a range of concentrations (10 nM–100 μM) were evaluated in black 384-well plates. The reactions were set up as before and fluorescence intensity was measured every 5 min for 30 min following reaction initiation. Using the initial rate values from the assay, percent activity was calculated for each sample relative to a negative DMSO only control. The data was fitted to a sigmoidal dose-response model using Graphpad Prism 3.0 (GraphPad Software, La Jolla, CA, USA) and IC50 values were determined using the formula: % Activity=100/(1+10^(log[I]−log IC 50)).

The test system of another series is HUVEC endothelial cells. As to the kind of experiment: MTS assay, toxicity in non-cancer cells. The series is classed as cell-based. As to conditions: compared with SK-Mel30 and U89MG. The procedure: (§3) MeWo, SKMel and MM418 melanoma cancer cell line were grown in RPMI culture medium (supplemented with penicillin 0.06 g l^−1, streptomycin 0.1 g l^−1 pH 7.0, 10% foetal bovine serum (FBS, PAA Cell Culture Company, Yeovil, Somerset, UK). U89 MG and SNB-19 glioma cell lines were grown in DMEM (supplemented with penicillin 0.06 g l^−1, streptomycin 0.1 g l^−1 pH 7.0, 10% foetal bovine serum (FBS, PAA Cell Culture Company). HUVEC endothelial cells were grown in a special media (199 Media+HAMS F12), and supplemented with 20% heat-inactivated foetal calf serum, 1% Hepes, 1% Glutamine, 12.5 μg Human EGF, 625 ng of Human bFGF, 3750 units of Heparin, penicillin 0.06 g l^−1, and streptomycin 0.1 g l^−1) Only cultures with a plating efficiency of over 70% were used for analyses.
To evaluate intrinsic cytotoxicity and to evaluate the potentiation of toxicity of cytotoxic agents by APE1 inhibitors, MTS assays were performed as per the manufacturer's recommendation (Promega, Southampton, UK). Briefly, 2000 cells per well (in 200 μl of medium) were seeded into a 96-well plate. For HUVEC cells, 5 μl of 2% type 2 gelatine (Sigma) was added to the wells and the plates were preincubated for 20 min at 37°C before seeding of cells. For intrinsic cytotoxicity assessments, cells were incubated with varying concentrations of APE1 inhibitors and the MTS assay was performed on day 5. […]

The next series deals with glioma cell lines. The experiment in a line: MTS assay, intrinsic cytotoxicity. The series is classed as cell-based. As to conditions: 120 h, MTS day 5, read-out: GI50 (cell growth inhibition). The procedure:
as §3
(§4) To evaluate intrinsic cytotoxicity and to evaluate the potentiation of toxicity of cytotoxic agents by APE1 inhibitors, MTS assays were performed as per the manufacturer's recommendation (Promega, Southampton, UK). Briefly, 2000 cells per well (in 200 μl of medium) were seeded into a 96-well plate. For HUVEC cells, 5 μl of 2% type 2 gelatine (Sigma) was added to the wells and the plates were preincubated for 20 min at 37°C before seeding of cells. For intrinsic cytotoxicity assessments, cells were incubated with varying concentrations of APE1 inhibitors and the MTS assay was performed on day 5. […] Non-radioactive cell proliferation assay was conducted as described previously.
A general note: Tetrazolium dyes change colour on reduction, which living cells bring about.

In the next series the test system is melanoma cell lines. The experiment in a line: MTS assay, intrinsic cytotoxicity. The format is cell-based. As to conditions: 120 h, MTS day 5, read-out: GI50 (cell growth inhibition). Here is the method: as §3, §4
The next series addresses T2, E. coli endonuclease IV (Escherichia coli, UniProt P0A6C1).
T2 construct: purchased Trevigen
As to the kind of experiment: Fluorescence-based endonuclease IV cleavage assay (counter-screen). The series is classed as biochemical. Conditions: tested at 100 μM. Here is the method:
as §1, §2
(The purpose of a counterscreen is to sort out artefacts and off-target activity.)

For series [1], the target named is T3, AP endonuclease activity of HeLa whole-cell extracts (WCE) (Homo sapiens, UniProt P27695).
T3 construct: incubated at 100 μM concentrations with 30 ng of HeLa WCE at room temperature; endogenous in cells; host or cells: HeLa whole-cell extract
The experiment in a line: Whole-cell extract AP-site cleavage assay. The series is classed as biochemical. Here is the method: The supernatant WCE was retained, the protein concentration determined using the Bio-Rad Bradford reagent, and aliquots were stored at −80°C. AP endonuclease activity assays using 18-mer radiolabelled oligonucleotide substrates (see above) were performed. In brief, all potential APE1 inhibitors were incubated at 100 μM concentrations with 30 ng of HeLa WCE at room temperature for 15 min in incision buffer consisting of 50 mM Tris-HCl, pH 8, 1 mM MgCl2, 50 mM NaCl and 2 mM DTT. After incubation, 0.5 pmol ^32P-radiolabeled THF-containing 18-mer double-stranded DNA substrate was added. […] The radiolabeled substrate and product were separated on a standard polyacrylamide-denaturing gel and quantified by phosphorimager analysis.

T3 sequence (P27695 whole entry): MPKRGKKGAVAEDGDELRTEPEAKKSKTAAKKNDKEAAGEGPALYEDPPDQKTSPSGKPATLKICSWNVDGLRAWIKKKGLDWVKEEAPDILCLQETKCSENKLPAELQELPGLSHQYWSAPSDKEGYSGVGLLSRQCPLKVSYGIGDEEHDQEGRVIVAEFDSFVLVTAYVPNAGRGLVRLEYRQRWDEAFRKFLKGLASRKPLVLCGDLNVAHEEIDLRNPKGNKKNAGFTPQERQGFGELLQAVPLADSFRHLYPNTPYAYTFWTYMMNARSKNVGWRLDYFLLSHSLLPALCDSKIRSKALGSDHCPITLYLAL
T1 sequence (P27695 whole entry): as above

For the molecule `Cc1ccc(-c2nc(S(=O)(=O)c3ccccc3)c(SCC(=O)Nc3ccc(F)cc3)o2)cc1` [Compound 4, N-(4-fluorophenyl)-2-(4-phenylsulfonyl-2-(p-tolyl)oxazol-5-yl) sulfanyl-acetamide], at Human APE1, the midpoint of inhibition, the IC50, lay at 11 µM. Further, the “toxicity to HUVEC cells” value in the series on HUVEC endothelial cells was “relatively nontoxic”. For the same molecule, the GI50 in the series with glioma cell lines came out at 17 µM; with melanoma cell lines, 20 µM. Moreover, the “Endo IV inhibition” value at E. coli endonuclease IV is “no inhibition and None”. The inhibition at 100 µM in series [1] (30 ng HeLa WCE, read-out: WCE Inhibition (whole-cell extracts AP site cleavage inhibition)) was > 75%; in series [1] (HeLa WCE, read-out: inhibition of AP site cleavage in WCE assay), ~93%. In addition, the “inhibition of AP site cleavage in WCE assay” value in series [1] (100 μM, HeLa WCE) is listed as > 90%.
